These results are taken from patent US11576981B2, “Acyl hydrazone linkers, methods and uses thereof” (Ontario Institute for Cancer Research (OICR), priority 2017, dated 2023).

The nature of series [1]: Half-life of model acyl hydrazones in a simulated lysosomal environment (pH 4.5). Type of series: physicochemical. The conditions noted are these: read-out: Acidic (pH 4.5) Half life. The source says: Towards the goal developing enhanced control of ADC linker stability, several model cyclic acyl hydrazones whose lability is modulated either by steric or stereoelectronic effects have been prepared. Exemplary acyl hydrazones containing a substituted phenyl group adjacent to the imine carbon have been synthesized. Starting with the acyl hydrazone structure (D) present in Mylotarg, the adjacent steric and electronic environments in model linker compounds were varied and their half-life tested in a simulated lysosomal environment (pH 4.5), as shown in Table 1. […] On the other hand, incorporation of a methoxy group in the same position (as in G) rendered the cyclic hydrazone very labile with a half-life of only 2 min.

For series [2], the system named is parental U87MG glioblastoma human tumor cell line. Briefly: Cell proliferation assay (SRB), U87 parental cells. The following applies: U-87 MG, 72 h. Type of series: cell-based. The method, then: (§1) The parental U87MG glioblastoma human tumor cell line (ATCC) and the corresponding cell line engineered to overexpress wt EGFR (EGFR^+ U87) (˜2M receptors per cell) were grown in DMEM medium containing 10% fetal bovine serum and 2 mM L-glutamine. Cells were inoculated into 96 well microtiter plates in 100 μL at a plating density of 4000 cells/well After cell inoculation, the microtiter plates were incubated at 37° C., 5% CO2, 95% air and 100% relative humidity. After 24 h incubation, experimental drugs were diluted to 10× the desired final maximum test concentration with complete medium and additional 10-fold or ½ log serial dilutions were made to provide a total of 6 drug concentrations plus control. Aliquots of 10 μl of these different drug dilutions were added to the appropriate microtiter wells already containing 100 μl of medium, resulting in the required final drug concentrations.
(§2) Following drug addition, the plates were incubated for an additional 72 h at 37° C., 5% CO2, 95% air, and 100% relative humidity. […] Bound stain was subsequently solubilized with 10 mM trizma base, and the absorbance was read on an automated plate reader at a wavelength of 515 nm. The growth was calculated at each of the drug concentrations levels relative to untreated cells (media only control).
(§3) Percentage growth inhibition was calculated as: [(Ti)/(C)]×100 […]

Series [3] relates to glioblastoma EGFR^+ U87 cell lines (U87MG engineered to overexpress wt EGFR). Nature of the series: Cell proliferation assay (SRB), EGFR^+ U87 cells. Type of series: cell-based. The conditions noted are these: Homo sapiens, U-87 MG, 72 h. The method, then: as §1, §2, §3
Series [4] in a line: Stability of acyl hydrazones on incubation in human plasma. The following applies: 6 days incubation in human plasma; remaining parent acyl hydrazone. Type of series: in vitro ADME. The method, then:
In addition, for an ADC to have a better therapeutic window, ideally it should be stable in plasma and having the payload released only upon entry to the target cells. Thus targeted cytotoxicity would be mostly confined to the diseased cells of interest. Starting with the acyl hydrazone structure (D) present in Mylotarg, the adjacent steric and electronic environments were varied in model linker compounds and their stability was tested in plasma.

Series [5] deals with SKOV3 ovarian cancer cell line. Briefly: Cytotoxicity against SKOV3 (CellTiter-Glo ATP viability). The class given is cell-based. The following applies: ATP content.
Procedure: SKOV3 ovarian cells are incubated with the effectors for a period corresponding to 2 to 3 times their estimated doubling time and the amount of viable cells is determine by measuring ATP content in the wells. […] All ADCs are diluted in DPBS to 6× the highest concentration tested, followed by 10 3-fold serial dilutions in DPBS for a total of 11 concentration points. Each point is added to triplicate wells. DPBS is added in wells to measure the maximum growth. Cells are diluted at their appropriate seeding density (ranging from 150 to 1000 cells per well) in complete media supplemented with glutamine 2 mM, serum and antibiotic cocktail. They are distributed in white, opaque bottom, tissue-culture treated 384 well plates and incubated for 24 hrs at 37° C.+5% CO2. […] Total ATP is measured using CellTiter-Glo reagent from Promega as recommended by the supplier. […] Signal output is measured on a luminescence plate reader (envision, Perkin Elmer) set at an integration time of 0.1 sec. […]
Each concentration point (S) is normalized to the negative control wells (NC) and expressed as % survival (NC−S/NC×100). Potency (IC50) and efficacy are calculated from a non-linear curve fit of the points versus log of the concentrations without constrain on the slope. Refined data are analysed using Prism software.

pIC50: −log10 of the molar value.

The half-life is how long it takes for the measured level to halve. For `C/C(=N\NC(=O)CC(C)(C)S)c1ccc(OCCCC(=O)O)cc1` [Compound Ia, 4-(4-(1-(2-(3-Mercaptomethylbutanoyl) hydrazineylidene)ethyl)phenoxy) butanoic acid], in series [1], the half-life was 15 min.

With `CC(C)(S)CC(=O)NN=C1CCCc2cc(OCCCC(=O)O)cc(O)c21` [Compound Ib, 4-((4-Hydroxy-5-(2-(3-mercapto-3-methylbutanoyl)hydrazono)-5,6,7,8-tetrahydronaphthalen-2-yl)oxy)butanoic acid], the half-life in series [1] is 234 min.

In the case of `CC(C)(S)CC(=O)N/N=C1\CCCc2cc(OCCCC(=O)O)ccc21` [Compound Ie, 4-((5-(2-(3-Mercapto-3-methylbutanoyl)hydrazineylidene)-5,6,7,8-tetrahydronaphthalen-2-yl)oxy)butanoic acid], in series [1], the half-life was 31 min.

One may read the pIC50 as the IC50 on a negative log10 scale, so that one unit is a factor of ten. On to `COc1cc2cc(c1Cl)N(C)C(=O)C[C@H](OC(=O)[C@H](C)N(C)C(=O)CCS)[C@]1(C)O[C@H]1[C@H](C)[C@@H]1C[C@@](O)(NC(=O)O1)[C@H](OC)/C=C/C=C(\C)C2` [DM1], for which the pIC50 in series [2] is 7.91; in series [3] it was 7.99.

Regarding `COc1ccc(/C(C)=N/NC(C)=O)cc1` [D], in series [1], the half-life is 15 min. The “% remaining after 6 days” value in series [4] is listed as 37%.

For the compound `COc1cc(O)cc2c1/C(=N/NC(C)=O)CCC2` [G], the half-life in series [1] was 2 min.

For the compound `CC(=O)N/N=C1\CCCc2ccc(F)cc21` [K], in series [1], the half-life was 88 min.

In the case of `CC(=O)N/N=C1\CCc2cccc(O)c21` [L], the half-life in series [1] is 185 min. Also, the “% remaining after 6 days” value in series [4] worked out at 50%.

Consider Synagis-SMCC-DM1: negative control ADC, for which, in series [5], the pIC50 is 8.02.
